From publication PMC10679740, “Role of peptide–cell surface interactions in cosmetic peptide application” (Frontiers in Pharmacology, 2023) come the findings set out here.

Structures can show the parent of a compound that is named as a salt. Where two headings read alike, the source gives them in different places. Where a SMILES comes first, the peptide text is derived from it. Where no end group is shown, it is not given here.

For orientation: inhibition means how much of the control response was suppressed.

Data set [1] has as its target T1, Human neutrophil elastase (Homo sapiens, UniProt P08246).
T1 construct: purchased Yuanye Bio Co. (Shanghai)
T1 sequence (P08246 30-267): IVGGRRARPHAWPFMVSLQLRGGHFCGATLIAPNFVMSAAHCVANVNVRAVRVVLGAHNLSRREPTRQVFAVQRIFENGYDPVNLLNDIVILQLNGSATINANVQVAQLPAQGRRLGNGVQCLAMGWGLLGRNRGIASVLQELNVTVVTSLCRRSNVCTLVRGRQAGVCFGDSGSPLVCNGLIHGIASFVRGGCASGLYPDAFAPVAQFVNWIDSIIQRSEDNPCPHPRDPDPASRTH
Kind of data set: Assay of elastase activity (pNA substrate, OD 405 nm). Particulars: 2.5 U/mL elastase, 37°C, 2 h time point; for elastase inhibition rate: peptide 200 μg/mL, 5 min preheating. It counts as biochemical. Here is the method:
N-Methoxysuccinyl-ala-ala-pro-val-p-nitroanilide (CAS: 70967-90-7) was bought from Sigma Chemical Co. (St. Louis, United States). Sivelestat sodium salt hydrate (S7198, CAS: 201677-61-4) was purchased from Meilun Co. (Dalian). Human neutrophil elastase (30 U/mg) was obtained from Yuanye Bio Co. (Shanghai). p-Nitroanilide (pNA, CAS: […]) was bought from Aladdin Co. (Shanghai). All other chemicals were of analytical grade and purchased from Sigma.
The stock solution (0.1 mg/mL pNA) was prepared in 10% DMSO. The standard curve of pNA was made using the different volumes of stock (200, 150, 100, 50, 30, 20, 10, 5, and 1 μL) mixed with 10% DMSO to reach a final volume of 200 μL. The optical density (OD) of each sample was measured at a wavelength of 405 nm.
Substrates were dissolved in 10% DMSO to form a final concentration of 100 μM. A measure of 100 μL of different concentrations (10, 5, 2.5, 1.25, 0.625, and 0.3125 U/mL) of elastase solution in 10% DMSO was preheated at 37°C for 5 min, and 100 μL of substrate solution was added to start the reaction at 37°C. The absorbance at 405 nm was monitored at 5-min intervals up to a recording time of 2 h at 37°C. A measure of 200 μL of 10% DMSO was taken as a blank control.
A measure of 90 μL of 2.5 U/mL elastase solution together with 10 μL of the sample at a certain concentration was preheated at 37°C for 5 min, and then 100 μL of the substrate was added to initiate a 120 min-reaction at 37°C. The OD was read at 405 nm. A measure of 200 μL of 10% DMSO was used as a blank control; 10 μL of Sivelestat solution at 10 mM was prepared as a positive control; and 10 μL of PBS was added as a negative control that represented the maximum enzyme activity. The inhibition rate of elastase was calculated according to the following formula: inhibition (%) = [1 − (ODsample − ODblank)/(ODneg − ODblank)] × 100%.

Data set [2] relates to HaCaT cells. In words: Release of lactate dehydrogenase after H2O2 damage. It is filed as cell-based, human. Particulars: 800 μM H2O2 for 2 h, then fresh medium 18 h, no peptide. The method, then:
Lactate dehydrogenase (LDH) activity of the cellular culture was evaluated using an LDH release assay kit (Beyotime). Cells (1 × 10^5 cells per well) were cultured in a 24-well plate for 24 h to reach approximately 80% confluence and then treated either with peptide solution or peptide-free DMEM (positive control, PC). After 4 h incubation, both the peptide solution and peptide-free culture medium were replaced with 250 μL of 800 µM H2O2 and incubated for another 2 h. Then, the cells were incubated with 500 µL of the fresh medium instead of H2O2 for 18 h. Then, 200 µL of the supernatant alone was harvested and mixed with 20 µL of the releasing agent, while the PC medium together with cells was incubated with the equivalent releasing agent. A measure of 200 μL of DMEM alone mixed with 20 µL of the releasing agent was used as a negative control (NC). Then, the solution was incubated at 37°C and 5% CO2 for 1 h and centrifuged at 1,000 rpm for 4 min. A measure of 40 μL suspension per well was pipetted into a 96-well plate and mixed with 20 µL of fresh LDH working solution that was prepared according to the manufacturer’s protocol. The plate was briefly vortexed in the dark for 30 min, and the OD values were measured at 490 nm wavelength. LDH release (%) was expressed via the following equation: LDH (%) = (ODsample − ODnc)/(ODpc − ODnc) × 100%.

Data set [3] deals with HFF-1. Kind of data set: Cell viability, CCK-8 assay. Particulars: HFF-1, 2 h incubation.
Experimental: (§2) Cells (1 × 10^4 cells per well) were seeded in a 96-well plate to reach approximately 80% confluence. Wells filled with DMEM alone served as positive controls (PCs). The culture medium of sample groups was replaced either by 100 μL of H2O2 or naked/FITC-labeled peptide solutions at different concentrations for a certain time of incubation, and non-treatment wells acted as negative controls (NCs). Then, the plate solutions were substituted with 100 μL of 10% CCK-8 solution per well and incubated for another 2 h, followed by an absorbance reading taken at 450 nm. The cell survival was determined according to the following formula: cell viability (%) = (ODsample − ODpc)/(ODnc − ODpc) × 100%.
Data set [4] relates to HaCaT. Kind of data set: Cell viability, CCK-8 assay. Conditions: 2 h incubation.
Experimental: as §2
The test system of data set [5] is HaCaT. Kind of data set: Cell apoptosis assay (Annexin V-FITC/PI, FCM). It is filed as cell-based, human. Conditions: with or without peptide 200 μg/mL 4 h, 800 μM H2O2 2 h, medium 18 h, Figure 4E/G. Here is the method: The percentage of early-stage apoptosis and late-stage apoptosis and necrosis of cells induced by H2O2, with or without peptide addition, were determined using an Annexin V-FITC/PI double-staining assay kit (Beyotime). Cells (1×10^5 cells per well) were seeded in a 24-well plate, pretreated with or without peptide solutions, and incubated for 4 h. The peptide solution or culture medium was replaced with 800 μM of H2O2 solution and was incubated for 2 h at 37°C. Then, the cells were incubated only with the complete medium for another 18 h. Non-treated groups were taken as controls. Suspended medium (200 µL) and trypsin-disassociated cells were collected and centrifuged at 1,000 rpm for 4 min. The precipitate was resuspended in binding buffer (195 µL) plus Annexin V-FITC (5 µL) and incubated for 5 min, followed by 10-min staining of 10 µL propidium iodide (PI). The non-staining sample was used as a reference. After a gentle mix at room temperature and a dark environment, the ratio of cell death was detected via flow cytometry (FCM). […] The free dye was inclined to bind to DNA in the nucleus and emitted strong green fluorescence when DEVD dye was broken down by caspase-3. The fluorescence intensity was measured by FCM, which represented the activity of caspase-3.

Data set [6] is described as follows: In vitro skin permeation test, Franz-type diffusion cells. The method, then:
The transdermal delivery of GHK and RGD-GHK was measured through the porcine skin. Permeation experiment was carried out for 24 h at 37 °C with Franz-type diffusion cells. Peptides in collected receptor solutions and skin retention were analyzed by HPLC. […] To further test whether the incorporation of a targeting motif could enhance the binding of chimeric peptides in vivo, we used smearing FITC-peptides at the mouse back for 24 h and tracked the peptide location of the skin slices by fluorescent microscopy.

Data set [7] deals with chymotrypsin. In words: Proteolytic stability assay. It counts as in vitro ADME. Particulars: peptide 1 mg/mL, chymotrypsin 1 mg/mL, 37°C, 0, 1, 2, 4, 8, 16 h (Figure S3: 0-8 h); remaining peptide by C18 RP-HPLC, 220 nm. Here is the method: To evaluate the proteolytic stability of peptides against chymotrypsin, the peptides were dissolved to 1 mg/mL and incubated with chymotrypsin (1 mg/mL) at 37°C for different times (0, 1, 2, 4, 8, and 16 h). Afterward, the remaining peptides in the samples were analyzed by C18 reversed-phase high-performance liquid chromatography (HPLC) and detected at 220 nm. The mobile phase of HPLC was a mixture of acetonitrile and deionized water containing 0.1% trifluoroacetic acid.

The subject of data set [8] is mouse red blood cells. Particulars: 2 mg/mL peptide, 5% (v/v) mouse red blood cells in PBS, 37°C, 1 h, OD 540 nm; repeated five times.
Experimental: The blood compatibility of peptides was assessed using mouse red blood cells. The procedure involved obtaining red blood cells by centrifuging mouse blood at 2,000 rpm for 5 min, followed by washing them with PBS three times. The red blood cells were then diluted to a final concentration of 5% (v/v). Then, 2 mg/mL of peptides were added to 1 mL of the red blood cell suspension, and the mixture was incubated at 37°C for 1 h. After incubation, the suspension was centrifuged at 2000 rpm for 5 min, and the supernatant was measured at 540 nm using a microplate reader. The positive control consisted of 0.1% Triton X-100, while PBS served as a negative control. […] The hemolysis percentage was calculated using the following formula: hemolysis (%) = [(ODsample −ODnc)/(ODpc − ODnc)] × 100%.
In data set [9] the test system is COL-1 of the human fibroblasts HFF-1. Kind of data set: Immunofluorescence staining of COL-1. Conditions: HFF-1, pretreatment 4 h (RGD-GHK 200 μg/mL), 400 µM H2O2 2 h, fresh medium 20 h. It counts as cell-based. Here is the method: (§1) HFF-1 cells (1.5 × 10^5 cells per well) or mouse embryonic fibroblasts (NIH3T3) were grown on sterile cell slides for 24 h till 80% confluence. A measure of 200 μg/mL of RGD-GHK and GHK solutions was prepared with serum-free DMEM, and the cells were treated with the solutions for 4 h. Then, the solutions were replaced with 400 µM H2O2 and incubated for another 2 h. Then, the fresh culture medium was added to the cells and incubated for another 20 h. Pretreatment without peptides was used as a negative control, while treatment with an anti-aging peptide, acetyl hexapeptide-8 (Wrinklend), was taken as a positive control. The slides were washed three times with PBS, followed by fixation in 500 µL of 4% paraformaldehyde for 15 min at room temperature. After washing with PBS another three times, the cells were permeabilized with 0.5% Triton X-100 for 15 min and washed with PBS repeatedly. The cells were blocked using 1% BSA for 1 h to eliminate non-specific binding. Samples were incubated at 4°C overnight with 100 µL of rabbit monoclonal antibody against type I collagen (COL1A1, 1:100 dilution, CST). […] Then, a fluorescent anti-quenching agent was applied to seal off the slips for 5 min, and the slips were observed using an upright fluorescence microscope.

Data set [10] concerns COL-1 of mouse embryonic fibroblasts NIH3T3. Kind of data set: Immunofluorescence staining of COL-1. It counts as cell-based. Conditions: NIH3T3, pretreatment 4 h (RGD-GHK 200 μg/mL), 400 µM H2O2 2 h, fresh medium 20 h. The method, then:
as §1

Where [11] appears, read: porcine skin, Franz-type diffusion cells, 24 h, 37 °C, HPLC.

In the case of `CC(C)(C)C(=O)Oc1ccc(S(=O)(=O)Nc2ccccc2C(=O)NCC(=O)O)cc1` [Sivelestat, Sivelestat sodium salt hydrate, reference compound], the inhibition at 250 µM in data set [1] (250 μM of Sivelestat (positive control), read-out: elastase inhibition rate) was about 65%.

On to RKQRRERGHK [sOtx2-GHK], for which the elastase inhibition rate in [1] is about 20%.

Consider `OO` [H2O2], for which the LDH leakage entry in data set [2] is “over 37%”. For the same compound, the “concentration with obvious cytotoxicity” value in data set [3] was 800 µM. In addition, the “concentration with apparent cytotoxic effect” value in data set [4] was 1,600 μM. The “ratio of early apoptosis” value in [5] is 28%.

As to `NCCCC[C@H](NC(=O)[C@H](Cc1cnc[nH]1)NC(=O)CN)C(=O)O` [GHK, tripeptide-1, reference compound] (H-Gly-His-Lys-OH), in data set [6], the “peptide detected in the receptor cell” value is about 0.5% and the “peptide detected in the skin (skin retention)” value was determined as 2.7%.

As for RGDGHK [RGD-GHK], in data set [6] (setting [11]), the “peptide detected in the receptor cell” value was “approximately 5%” and the “peptide detected in the skin (skin retention)” value is on record as 5%. Besides, the “proteolytic stability against chymotrypsin, compared with GHK” value in data set [7] is listed as “no significant difference in the proteolytic stability”. For the same compound, the “hemolysis (RBCs lysed)” value in data set [8] is reported as “less than 1%”. Further, in [1], the elastase inhibition rate result is recorded as “approximately 25%”.

Regarding acetyl hexapeptide-8 [Wrinklend], the “COL-1 expression (immunofluorescence)” value in data set [9] and in data set [10] was “significantly suppressed COL-1 degradation” in each case.
